According to BigSolDB 2.1:

COC(=O)[C@@H](N)CS.Cl
Conditions | solubility (mole fraction)
in 1,4-dioxane, 288.15 K | 0.00083
in 1,4-dioxane, 293.15 K | 0.001
in 1,4-dioxane, 298.15 K | 0.0013
in 1,4-dioxane, 303.15 K | 0.00147
in 1,4-dioxane, 308.15 K | 0.00184
in 1,4-dioxane, 313.15 K | 0.00211
in 1,4-dioxane, 318.15 K | 0.00232
in 1,4-dioxane, 323.15 K | 0.00269
in 1,4-dioxane, 328.15 K | 0.00305
in 1,4-dioxane, 333.15 K | 0.00349
in 2-butanone, 283.15 K | 0.00065
in 2-butanone, 288.15 K | 0.00084
in 2-butanone, 293.15 K | 0.00108
in 2-butanone, 298.15 K | 0.00132
in 2-butanone, 303.15 K | 0.00164
in 2-butanone, 308.15 K | 0.00192
in 2-butanone, 313.15 K | 0.00225
in 2-butanone, 318.15 K | 0.0025
in 2-butanone, 323.15 K | 0.00333
in 2-butanone, 328.15 K | 0.00418
in 2-butanone, 333.15 K | 0.00573
in acetone, 283.15 K | 0.00062
in acetone, 288.15 K | 0.00073
in acetone, 293.15 K | 0.00082
in acetone, 298.15 K | 0.00087
in acetone, 303.15 K | 0.00093
in acetone, 308.15 K | 0.00101
in acetone, 313.15 K | 0.00111
in acetone, 318.15 K | 0.00124
in acetone, 323.15 K | 0.00152
in acetonitrile, 283.15 K | 0.00021
in acetonitrile, 288.15 K | 0.00029
in acetonitrile, 293.15 K | 0.00032
in acetonitrile, 298.15 K | 0.0004
in acetonitrile, 303.15 K | 0.00043
in acetonitrile, 308.15 K | 0.0005
in acetonitrile, 313.15 K | 0.00062
in acetonitrile, 318.15 K | 0.00091
in acetonitrile, 323.15 K | 0.00098
in acetonitrile, 328.15 K | 0.00104
in acetonitrile, 333.15 K | 0.00123
in dichloromethane, 283.15 K | 5e-05
in dichloromethane, 288.15 K | 7e-05
in dichloromethane, 293.15 K | 9e-05
in dichloromethane, 298.15 K | 0.00011
in dichloromethane, 303.15 K | 0.00013
in ethanol, 283.15 K | 0.0232
in ethanol, 288.15 K | 0.0257
in ethanol, 293.15 K | 0.029
in ethanol, 298.15 K | 0.0337
in ethanol, 303.15 K | 0.0428
in ethanol, 308.15 K | 0.0471
in ethanol, 313.15 K | 0.0536
in ethanol, 318.15 K | 0.0622
in ethanol, 323.15 K | 0.0722
in ethanol, 328.15 K | 0.0864
in ethanol, 333.15 K | 0.1
in ethyl acetate, 283.15 K | 7e-05
in ethyl acetate, 288.15 K | 0.0001
in ethyl acetate, 293.15 K | 0.00012
in ethyl acetate, 298.15 K | 0.00015
in ethyl acetate, 303.15 K | 0.00018
in ethyl acetate, 308.15 K | 0.00023
in ethyl acetate, 313.15 K | 0.00027
in ethyl acetate, 318.15 K | 0.0003
in ethyl acetate, 323.15 K | 0.00032
in ethyl acetate, 328.15 K | 0.00042
in ethyl acetate, 333.15 K | 0.00052
in isobutanol, 283.15 K | 0.00393
in isobutanol, 288.15 K | 0.00437
in isobutanol, 293.15 K | 0.00478
in isobutanol, 298.15 K | 0.00541
in isobutanol, 303.15 K | 0.00634
in isobutanol, 308.15 K | 0.00718
in isobutanol, 313.15 K | 0.0086
in isobutanol, 318.15 K | 0.00972
in isobutanol, 323.15 K | 0.0125
in isobutanol, 328.15 K | 0.0162
in isobutanol, 333.15 K | 0.0196
in isopropanol, 283.15 K | 0.0036
in isopropanol, 288.15 K | 0.00389
in isopropanol, 293.15 K | 0.00422
in isopropanol, 298.15 K | 0.00512
in isopropanol, 303.15 K | 0.00585
in isopropanol, 308.15 K | 0.00648
in isopropanol, 313.15 K | 0.00806
in isopropanol, 318.15 K | 0.0097
in isopropanol, 323.15 K | 0.0127
in isopropanol, 328.15 K | 0.0153
in isopropanol, 333.15 K | 0.0188
in methanol, 283.15 K | 0.0906
in methanol, 288.15 K | 0.0944
in methanol, 293.15 K | 0.106
in methanol, 298.15 K | 0.114
in methanol, 303.15 K | 0.127
in methanol, 308.15 K | 0.139
in methanol, 313.15 K | 0.155
in methanol, 318.15 K | 0.168
in methanol, 323.15 K | 0.187
in methanol, 328.15 K | 0.212
in methanol, 333.15 K | 0.257
in n-butanol, 283.15 K | 0.00537
in n-butanol, 288.15 K | 0.00599
in n-butanol, 293.15 K | 0.0067
in n-butanol, 298.15 K | 0.00847
in n-butanol, 303.15 K | 0.0106
in n-butanol, 308.15 K | 0.0124
in n-butanol, 313.15 K | 0.0136
in n-butanol, 318.15 K | 0.0164
in n-butanol, 323.15 K | 0.0198
in n-butanol, 328.15 K | 0.0238
in n-butanol, 333.15 K | 0.0306
in n-pentanol, 283.15 K | 0.0039
in n-pentanol, 288.15 K | 0.00462
in n-pentanol, 293.15 K | 0.0054
in n-pentanol, 298.15 K | 0.00662
in n-pentanol, 303.15 K | 0.00824
in n-pentanol, 308.15 K | 0.00924
in n-pentanol, 313.15 K | 0.0111
in n-pentanol, 318.15 K | 0.0125
in n-pentanol, 323.15 K | 0.0149
in n-pentanol, 328.15 K | 0.0187
in n-pentanol, 333.15 K | 0.0236
in n-propanol, 283.15 K | 0.00805
in n-propanol, 288.15 K | 0.00883
in n-propanol, 293.15 K | 0.0106
in n-propanol, 298.15 K | 0.0124
in n-propanol, 303.15 K | 0.0145
in n-propanol, 308.15 K | 0.0161
in n-propanol, 313.15 K | 0.0193
in n-propanol, 318.15 K | 0.0219
in n-propanol, 323.15 K | 0.0272
in n-propanol, 328.15 K | 0.0306
in n-propanol, 333.15 K | 0.0384
in sec-butanol, 283.15 K | 0.00252
in sec-butanol, 288.15 K | 0.00265
in sec-butanol, 293.15 K | 0.00283
in sec-butanol, 298.15 K | 0.00372
in sec-butanol, 303.15 K | 0.00416
in sec-butanol, 308.15 K | 0.00455
in sec-butanol, 313.15 K | 0.00513
in sec-butanol, 318.15 K | 0.0063
in sec-butanol, 323.15 K | 0.0082
in sec-butanol, 328.15 K | 0.00958
in sec-butanol, 333.15 K | 0.0112
